Results reported in ChEMBL document CHEMBL1201862, “PubChem BioAssay data set” (2004).
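Growth conditions: 96-well plates. Treatment: test compound, 48 hours, 5 concentrations. Analysis: linear interpolation between bracketing concentrations; unreached endpoints set to highest concentration. Here, GI50 denotes the concentration required for 50% inhibition of growth.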 Active and inactive are the calls of the source. Rule as the data show it: active = GI50 up to about 1.1 µM and inactive = higher.

Columns and labels:
Assay in all cases: NCI-60 cell line screen, 48 h
SK-MEL-5 = system: SK-MEL-5
DU-145 = system: DU-145
MDA-MB-231 = system: MDA-MB-231
OVCAR-4 = system: OVCAR-4
NCI-H23 = system: NCI-H23
HCT-116 = system: HCT-116
UACC-62 = system: UACC-62
HOP-92 = system: HOP-92
MDA-N = system: MDA-N
LOX IMVI = system: LOX IMVI
SW-620 = system: SW-620
PC-3 = system: PC-3
SN12C = system: SN12C
CAKI-1 = system: CAKI-1
HCT-15 = system: HCT-15
U-251 = system: U-251
OVCAR-3 = system: OVCAR-3
OVCAR-5 = system: OVCAR-5
K562 = system: K562

Structure (SMILES) | GI50 (SK-MEL-5) | GI50 (DU-145) | GI50 (MDA-MB-231) | GI50 (OVCAR-4) | GI50 (NCI-H23) | GI50 (HCT-116) | GI50 (UACC-62) | GI50 (HOP-92) | GI50 (MDA-N) | GI50 (LOX IMVI) | GI50 (SW-620) | GI50 (PC-3) | GI50 (SN12C) | GI50 (CAKI-1) | GI50 (HCT-15) [µM] | GI50 (U-251) | GI50 (OVCAR-3) | GI50 (OVCAR-5) | GI50 (K562)
C[C@@H](c1ccccc1)n1c(N)c(-c2ccccn2)c2ccc([N+](=O)[O-])cc2c1=O | 25.7 µM (inactive) | 31.8 µM (inactive) | 86.3 µM (inactive) | 80.2 µM (inactive) | 54.6 µM (inactive) | 79.4 µM (inactive) | > 100 µM (inactive) | 33.3 µM (inactive) | 88.7 µM (inactive) | > 100 µM (inactive) | > 100 µM (inactive) | 17.5 µM (inactive) | 98.2 µM (inactive) | 51.8 µM (inactive) | 86.1 | 47.5 µM (inactive) | – | – | –
CC(=O)/C(=C/c1ccccc1F)C(=O)c1ccccc1 | 42.9 µM (inactive) | 33.6 µM (inactive) | 26.1 µM (inactive) | 67.8 µM (inactive) | 32 µM (inactive) | 27.8 µM (inactive) | 37.2 µM (inactive) | 91.8 µM (inactive) | 37.9 µM (inactive) | 17.8 µM (inactive) | 20.7 µM (inactive) | 27.7 µM (inactive) | 37.2 µM (inactive) | > 100 µM (inactive) | 27.7 | 29.6 µM (inactive) | 18.6 µM (inactive) | > 100 µM (inactive) | –
Cc1ccccc1/N=C/N(C)C | 17.2 µM (inactive) | 44.2 µM (inactive) | 39 µM (inactive) | 37.5 µM (inactive) | 19.2 µM (inactive) | 33.8 µM (inactive) | 41.9 µM (inactive) | 48.3 µM (inactive) | 37.5 µM (inactive) | 23.8 µM (inactive) | – | 26.7 µM (inactive) | 66.5 µM (inactive) | > 100 µM (inactive) | > 100 | 39.4 µM (inactive) | 17.7 µM (inactive) | 72.8 µM (inactive) | 14.1 µM (inactive)
COc1cccc(-c2cc(O)c3cc(Cl)cnc3n2)c1 | 0.0495 µM (active) | 0.358 µM (active) | 0.338 µM (active) | 6.17 µM (inactive) | 0.254 µM (active) | 0.0469 µM (active) | 0.0589 µM (active) | 0.469 µM (active) | 0.0144 µM (active) | 0.0687 µM (active) | 0.0488 µM (active) | 0.065 µM (active) | 0.143 µM (active) | 0.0546 µM (active) | 0.114 | 0.0693 µM (active) | 0.0369 µM (active) | 1.33 µM (inactive) | 0.0419 µM (active)
O=C1CSC(c2ccccc2)N1c1nc2cc3sc(N4C(=O)CSC4c4ccccc4)nc3cc2s1 (stereo unspecified) | 32.3 µM (inactive) | 15.2 µM (inactive) | 68.7 µM (inactive) | 60.1 µM (inactive) | 15 µM (inactive) | 24.6 µM (inactive) | 56.8 µM (inactive) | > 100 µM (inactive) | > 64.4 µM (inactive) | 25.4 µM (inactive) | 9.95 µM (inactive) | 48.4 µM (inactive) | 32.4 µM (inactive) | 39.5 µM (inactive) | 10.2 | 38.2 µM (inactive) | 36.6 µM (inactive) | 60 µM (inactive) | 47.4 µM (inactive)
CCCCc1ccc(Nc2nc(S)c3ncn(COCCO)c3n2)cc1 | 62.1 µM (inactive) | 56.9 µM (inactive) | 15.4 µM (inactive) | 45.4 µM (inactive) | 34.4 µM (inactive) | 65 µM (inactive) | 41.4 µM (inactive) | 27.4 µM (inactive) | 41.9 µM (inactive) | 27.4 µM (inactive) | 69 µM (inactive) | 32.9 µM (inactive) | 39.7 µM (inactive) | > 100 µM (inactive) | > 100 | 35 µM (inactive) | 21 µM (inactive) | 86.5 µM (inactive) | 15.5 µM (inactive)
COc1ccc(/C=C/C2=NN(c3cccc(S(=O)(=O)O)c3)C3(C2)SCC(=O)N3c2nc3ccccc3s2)cc1 (stereo unspecified) | 58.9 µM (inactive) | 66.5 µM (inactive) | 67 µM (inactive) | 53.1 µM (inactive) | 40.1 µM (inactive) | > 100 µM (inactive) | 54.3 µM (inactive) | 68.1 µM (inactive) | > 100 µM (inactive) | 33.1 µM (inactive) | > 100 µM (inactive) | 68.7 µM (inactive) | > 100 µM (inactive) | > 100 µM (inactive) | 85.9 | 46.2 µM (inactive) | – | > 100 µM (inactive) | 31.3 µM (inactive)
O=C(/C=C(\Nc1ccccc1O)c1ccc(Br)cc1)C(Cl)(Cl)Cl | 14.2 µM (inactive) | 3.03 µM (inactive) | 6.95 µM (inactive) | 5.16 µM (inactive) | 12.6 µM (inactive) | 10.5 µM (inactive) | 13.3 µM (inactive) | 2.6 µM (inactive) | 4.69 µM (inactive) | 17.9 µM (inactive) | 3.06 µM (inactive) | 2.47 µM (inactive) | 7.67 µM (inactive) | 6.3 µM (inactive) | 12.2 | 3.74 µM (inactive) | 4.34 µM (inactive) | 12.1 µM (inactive) | 14.2 µM (inactive)
